Reference: patent US20150291658A1, “NOVEL CHONDRAMIDE DERIVATIVES” (HELMOLTZ-ZENTRUM FÜR INFEKTIONSFORSCHUNG, priority 2012, published 2015)
“Also recorded” adds a separate entry of the source. Like-named read-outs stand apart in the source and are kept apart here.

What was measured:
[1] = tested on: human U-2 OS osteosarcoma cell line; test: Growth inhibition experiments (MTT, 5 d), U-2 OS; type: cell-based
Method: (§1) Cells were seeded at 6×10^3 cells per well of 96-well plates (Corning CellBind®) in 180 μl complete medium and directly treated with chondramides dissolved in methanol in a serial dilution. Each compound was tested in duplicate for 5 d, as well as the internal methanol control. After 5 d incubation, 20 μl of 5 mg/ml MTT (Mosmann, T. (1983). Rapid Colorimetric Assay for Cellular Growth and Survival: Application to Proliferation and Cytotoxicity Assays. J. Immunol. Meth. 65, 55-63) in PBS was added per well and it was further incubated for 2 h at 37° C. The medium was then discarded and cells were washed with 100 μl PBS before adding 100 μl 2-propanol/10 N HCl (250:1) in order to dissolve formazan granules. The absorbance at 570 nm was measured using a microplate reader (EL808, Bio-Tek Instruments Inc.), and cell viability was expressed as percentage relative to the respective methanol control. GI50 values were obtained by sigmoidal curve fitting. Testing of fractions was performed likewise using 1.2×10^4 cells per well. Samples were dissolved in cell culture medium and cells were treated for 2 d before adding MTT. Viability was expressed relative to the untreated control.

[2] = tested on: HUVEC, human umbilical vein endothelial cells (primary cells); test: Growth inhibition experiments (MTT, 5 d), HUVEC; type: cell-based; settings: Table 1
Excerpt: (§2) With primary cells (HUVEC, human umbilical vein endothelial cells) and the fibroblast cell line MRC5 this is not the case. Whereas chondramides A˜C are comparably active on both, cancer and non-cancerous cells, brominated chondramide C3 analogs are on average by factor 2-4 less toxic for non-cancerous cells. Accordingly they show a higher selectivity.
(§3) Cell lines were obtained from the American Type Culture Collection (ATCC) and the German Collection of Microorganisms and Cell Cultures (Deutsche Sammlung für Mikroorganismen and Zellkulturen, DSMZ), and HUVEC (single donor) were purchased from PromoCell. Cells were cultured under the conditions recommended by the respective depositor in a standard humidified incubator at 37° C. with 5% CO2.
as §1

L-929 = test: Growth inhibition experiments (GI50), L-929; type: cell-based; settings: Table 1
[3] = tested on: KB-3.1: human cervical carcinoma; test: Growth inhibition experiments (GI50), KB-3.1; type: cell-based; settings: for GI50 values KB-3.1: Table 1
[4] = tested on: multidrug resistant (MDR) KB-V.1 cell line; test: Growth inhibition experiments (MTT, 5 d), KB-V.1; type: cell-based; settings: Table 1
Method: Cancer Inst. 90, 1559-1563). […] The same applies for most novel derivatives, solely a hydroxyl group at C2′ of the polyketide segment instead of methoxy or simply hydrogen leads to an approximately 10-fold reduced potency. GI50 values of glycosylated derivatives were not determinable precisely in the assay's concentration range.
as §1

[5] = tested on: RAW246.7: murine leukemic monocyte macrophages; test: Growth inhibition experiments (GI50), RAW246.7; type: cell-based; settings: group A derivatives, small panel of cancer cell lines
[6] = tested on: fibroblast cell line MRC5; test: Growth inhibition experiments (MTT, 5 d), MRC5; type: cell-based, human; settings: Table 1
Method: as §2, §1

[7] = tested on: HCT-116 colon carcinoma cell line; test: Growth inhibition experiments (MTT, 5 d), HCT-116; type: cell-based, human
Method: as §1

[8] = target: T1, pyrene-labeled rabbit muscle actin (Oryctolagus cuniculus, UniProt P68135); test: Actin polymerization assay (pyrene actin fluorescence); type: biochemical; settings: 20 μM derivative, 5 μM pyrene actin, non-polymerizing buffer, followed over 85 min
T1 construct: pyrene-labeled rabbit muscle actin; purchased Cytoskeleton, Inc; host or cells: rabbit muscle (tissue-derived; inferred from the name)
Method: A final concentration of 20 μM for each derivative was chosen and polymerization was followed over 85 min.
Fluorescence-based actin polymerization assays were performed using pyrene muscle actin (Cytoskeleton, Inc.) according to the supplier's protocol. Chondramides were dissolved in non-polymerizing buffer (5 mM Tris-HCl pH 8.0, 0.2 mM CaCl2, 0.2 mM ATP, 1 mM DTT) and mixed with pyrene actin diluted in the same buffer to give a final concentration of 20 μM chondramide and 5 μM actin. Samples were prepared in black, low-volume 384-well plates (Corning, NBS™ surface). The fluorescence at 405 nm (excitation at 360 nm) was scanned every 30 s for 85 min at 37° C. on a microplate reader (Spectramax M5^e, Molecular Devices). Experiments were performed in duplicates and the average relative fluorescence of polymerizing pyrene actin is given. Slopes were calculated in the linear range of kinetic measurements.

[9] = tested on: panel of cell lines derived from various origins and tissues (cancer cell lines, non-cancerous cell lines, primary cells); test: Growth inhibition experiments (MTT, 5 d), panel of cell lines; type: cell-based; settings: for GI50 values on human cancer cell lines: cell-based studies; for growth inhibitory activity in cell lines (in words, compared to chondramides A~C / other derivatives): GI50-based comparison, panel of cell lines
Method: First, the compounds were tested on a small panel of cell lines derived from various origins and tissues. GI50 values were compared to those determined using chondramides A˜C (see Table 1).
as §3, §1
These compounds were profiled regarding their growth inhibitory potential in a panel of cancer cell lines. Natural chondramide A was used as reference:
Biological evaluation of group A derivatives. GI50 values [nM] were determined in a small panel of cancer cell lines.

[10] = Table 1, U-2 OS, read-out: GI50 values U-2 OS
[11] = Table 1, HCT-116, read-out: GI50 values HCT-116

| melting point [°C] | SMILES | GI50 [1, 10] [nM] | GI50 ([1]; group A derivatives, small panel of cancer cell lines, U-2 OS human osteosarcoma, read-out: GI50 U-2 OS) [nM] | GI50 [2] [nM] | GI50 (L-929) [nM] | GI50 values KB-3.1 [3] | GI50 KB-3.1 ([3]; group A derivatives, small panel of cancer cell lines, KB-3.1 human cervical carcinoma) [nM] | GI50 values KB-V.1 [4] | GI50 [5] [nM] | GI50 [6] [nM] | GI50 [7, 11] [nM] | GI50 ([7]; group A derivatives, small panel of cancer cell lines, HCT-116 human colon carcinoma, read-out: GI50 HCT-116) [nM] | actin-polymerizing effect (G-actin polymerization in vitro) [8] | GI50 values on human cancer cell lines [9] | growth inhibitory activity in cell lines (in words, compared to chondramides A~C / other derivatives) [9] | GI50 values HUVEC [2] |
| --- | --- | --- | --- | --- | --- | --- | --- | --- | --- | --- | --- | --- | --- | --- | --- | --- |
| – | CO[C@@H]1C(=O)O[C@H](C)[C@H](C)/C=C(\C)C[C@H](C)C(=O)N[C@@H](C)C(=O)N(C)[C@H](Cc2c[nH]c3ccccc23)C(=O)N[C@H]1c1ccc(O)cc1 [Chondramide A, reference compound] | 27.1 ± 4.1 | 68.5 | 43.7 ± 7 | 90.9 ± 11.8 | 50.5 ± 15.4 nM | 71.6 | 38.0 ± 10.5 nM | 47.3 | 63.8 ± 13 | 48.9 ± 14.6 | 91.7 | – | – | – | – |
| – | COC1C(=O)OC(C)C(C)C=C(C)CC(C)C(=O)NC(C)C(=O)N(C)C(Cc2c(Cl)[nH]c3ccccc23)C(=O)NC1c1ccc(O)c(Cl)c1 (stereo not shown) [Chondramide A4] | 26.4 ± 2.2 | – | 52.5 ± 7.4 | 67.6 ± 9.8 | 56.8 ± 7.0 nM | – | 83.1 ± 1.6 nM | – | 12.7 ± 1.4 | 44.4 ± 1.6 | – | similarly potent; also recorded: increases the polymerization rate even more drastically | – | – | – |
| – | COC1C(=O)OC(C)C(C)C=C(C)CC(C)C(=O)NC(C)C(=O)N(C)C(Cc2c[nH]c3ccccc23)C(=O)NC1c1ccc(O)c(Br)c1 (stereo not shown) [Bromo-Chondramide A3] | 37.7 ± 2.8 | – | 32.7 ± 2.9 | 69.4 ± 1.5 | 74.5 ± 14.2 nM | – | 11.2 ± 0.4 nM | – | 44.5 ± 4.9 | 42.9 ± 3.2 | – | quickly polymerizes G-actin | low nanomolar range | – | – |
| – | COC1C(=O)OC(C)C(C)C=C(C)CC(C)C(=O)NC(C)C(=O)N(C)C(Cc2c(Cl)[nH]c3ccccc23)C(=O)NC1c1ccc(OP(=O)(O)O)c(Cl)c1 (stereo not shown) [Chondramide A8] | 33.2 ± 3.4 | – | 24.1 ± 7.9 | 56.2 ± 12.5 | 13.4 ± 3.0 nM | – | 58.1 ± 4.0 nM | – | 7.6 ± 4.7 | 49.3 ± 7.6 | – | significantly reduced actin-polymerizing effect | – | comparable to chondramides A˜C | – |
| 129 to 132 | C/C1=C\CCOC(=O)C[C@H](c2ccc(O)c(Br)c2)NC(=O)[C@@H](Cc2c[nH]c3ccccc23)N(C)C(=O)[C@H](C)NC(=O)CC1 | – | – | – | – | – | – | – | – | – | – | – | – | – | – | – |
| – | CCC1OC(=O)CC(c2ccc(O)c(Br)c2)NC(=O)C(Cc2c[nH]c3ccccc23)N(C)C(=O)C(C)NC(=O)C(C)CC(C)=CC1C (stereo not shown) [Propionyl-Bromo-Chondramide C3] | 9 ± 0.6 | – | 50.2 ± 5.6 | 23 ± 2.1 | 38.0 ± 6.5 nM | – | 31.9 ± 2.0 nM | – | 130 ± 3.7 | 17.2 ± 1.6 | – | – | low nanomolar range | the most active in cell-based studies | – |
| – | COC1C(=O)OC(C)C(C)C=C(C)CC(C)C(=O)NC(C)C(=O)N(C)C(Cc2c(Cl)[nH]c3ccccc23)C(=O)NC1c1ccc(OC2OC(C(=O)O)C(O)C(O)C2O)c(Cl)c1 (stereo not shown) [Chondramide A10] | – | – | – | – | w.a. | – | w.a. | – | – | – | – | slow increase in G-actin polymerization; also recorded: partly restore the ability to polymerize actin | – | significantly reduced | w.a. |
